Experimental data published in US9522923B2, “Selective BACE1 inhibitors” (Eli Lilly and Company, priority 2015, dated 2016).
Like-named read-outs stand apart in the source and are kept apart here.

How the values were obtained:
human BACE1(1-460):Fc = target: T1, human BACE1(1-460):Fc (Homo sapiens, UniProt P56817); test: BACE1 FRET Assay; type: biochemical; conditions: purified recombinant huBACE1:Fc, FRET substrate based on APP; Mean±SEM 0.48, n=4
T1 construct: made in house; host or cells: HEK293 (transient transfection, purified from conditioned media by Protein A)
T1 sequence (P56817 22-460): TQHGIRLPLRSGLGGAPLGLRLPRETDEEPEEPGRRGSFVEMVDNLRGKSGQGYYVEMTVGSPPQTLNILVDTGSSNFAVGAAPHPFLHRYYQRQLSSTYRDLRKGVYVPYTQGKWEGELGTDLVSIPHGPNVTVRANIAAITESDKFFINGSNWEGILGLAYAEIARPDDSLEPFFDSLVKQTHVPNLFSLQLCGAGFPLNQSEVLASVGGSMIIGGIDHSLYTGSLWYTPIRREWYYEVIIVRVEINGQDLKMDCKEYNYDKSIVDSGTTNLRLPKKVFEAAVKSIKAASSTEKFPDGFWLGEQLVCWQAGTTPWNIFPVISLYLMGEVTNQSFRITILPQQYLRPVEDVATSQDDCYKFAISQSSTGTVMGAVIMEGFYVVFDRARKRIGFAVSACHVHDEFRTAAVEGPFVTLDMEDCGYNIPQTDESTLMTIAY
Procedure: (§1) To assess selectivity of BACE1 over BACE2, the test compound is evaluated in FRET-based enzymatic assays using specific substrates for BACE1 and BACE2 as described below. For in vitro enzymatic and cellular assays, the test compound is prepared in DMSO to make up a 10 mM stock solution. The stock solution is serially diluted in DMSO to obtain a ten-point dilution curve with final compound concentrations ranging from 10 μM to 0.05 nM in a 96-well round-bottom plate before conducting the in vitro enzymatic and whole cell assays.
Human BACE1 (accession number: AF190725) and human BACE2 (accession number: AF 204944) are cloned from total brain cDNA by RT-PCR. The nucleotide sequences corresponding to amino acid sequences #1 to 460 are inserted into the cDNA encoding human IgG1 (Fc) polypeptide (Vassar et al., Science, 286, 735-742 (1999)). […]
(§2) Conditioned media of HEK293 cell transiently transfected with huBACE1:Fc or huBACE2:Fc cDNA are collected. […] The purity of final product is assessed by electrophoresis in 4-20% Tris-Glycine SDS-PAGE. […]
Serial dilutions of the test compound are prepared as described above. […] The RFU of the mixture at time 0 is recorded at excitation wavelength 355 nm and emission wavelength 460 nm, after brief mixing on a plate shaker. […] The RFU at the end of incubation is recorded with the same excitation and emission settings used at time 0. […]

human BACE2 (1-460):Fc = target: T2, human BACE2 (1-460):Fc (Homo sapiens, UniProt Q9Y5Z0); test: BACE2 TMEM27 FRET Assay; type: biochemical
T2 construct: made in house; host or cells: HEK293 (transient transfection, purified from conditioned media by Protein A)
T2 sequence (Q9Y5Z0 21-460): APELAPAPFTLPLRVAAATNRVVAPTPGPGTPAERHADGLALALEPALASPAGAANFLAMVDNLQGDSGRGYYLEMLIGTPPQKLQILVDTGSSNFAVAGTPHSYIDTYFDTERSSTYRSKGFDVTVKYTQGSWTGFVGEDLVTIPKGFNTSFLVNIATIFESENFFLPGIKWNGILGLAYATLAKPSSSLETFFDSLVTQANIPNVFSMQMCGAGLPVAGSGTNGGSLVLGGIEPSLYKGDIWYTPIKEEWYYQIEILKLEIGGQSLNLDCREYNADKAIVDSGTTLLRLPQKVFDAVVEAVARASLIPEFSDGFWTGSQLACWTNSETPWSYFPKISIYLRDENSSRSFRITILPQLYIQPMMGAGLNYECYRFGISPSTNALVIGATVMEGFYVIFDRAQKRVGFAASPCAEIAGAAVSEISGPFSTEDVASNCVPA
Procedure: as §1
Human BACE1 (accession number: AF190725) and human BACE2 (accession number: AF 204944) are cloned from total brain cDNA by RT-PCR. […]
as §2
Transmembrane protein 27 (TMEM27) (Accession Number NM_020665), also known as Collectrin) is a recently described substrate for BACE2, but not BACE1 (Esterhazy, et al, Cell Metabolism, 14, 365-377 (2011)). […] The RFU of the mixture at time 0 is recorded at excitation wavelength 430 nm and emission wavelength 535 nm. […] The RFU at the end of incubation is recorded with the same excitation and emission settings used at time 0. […]

BACE1 = target: T3, BACE1 (Homo sapiens, UniProt P56817); test: SH-SY5YAPP695Wt Whole Cell Assay (Abeta ELISA); type: cell-based; conditions: 24 hours incubation, conditioned media, Mean ± SEM, n = 4
T3 construct: endogenous in cells; host or cells: SH-SY5Y (ATCC CRL2266) stably expressing human APP695Wt
T3 sequence (P56817 46-501): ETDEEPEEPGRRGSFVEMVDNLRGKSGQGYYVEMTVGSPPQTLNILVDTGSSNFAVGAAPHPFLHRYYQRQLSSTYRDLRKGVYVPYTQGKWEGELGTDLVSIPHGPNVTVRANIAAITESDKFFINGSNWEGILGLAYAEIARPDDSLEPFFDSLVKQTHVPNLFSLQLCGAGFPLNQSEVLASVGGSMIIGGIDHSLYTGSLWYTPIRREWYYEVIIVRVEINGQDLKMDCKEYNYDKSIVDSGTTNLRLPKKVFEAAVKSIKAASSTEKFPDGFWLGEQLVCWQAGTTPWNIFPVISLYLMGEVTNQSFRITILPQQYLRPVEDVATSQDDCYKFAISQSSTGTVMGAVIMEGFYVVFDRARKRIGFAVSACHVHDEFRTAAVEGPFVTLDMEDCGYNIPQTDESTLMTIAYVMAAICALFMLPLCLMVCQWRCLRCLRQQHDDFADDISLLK
Procedure: as §1
The routine whole cell assay for the measurement of inhibition of BACE1 activity utilizes the human neuroblastoma cell line SH-SY5Y (ATCC Accession No. CRL2266) stably expressing a human APP695Wt cDNA. Cells are routinely used up to passage number 6 and then discarded.
SH-SY5YAPP695Wt cells are plated in 96 well tissue culture plates at 5.0×10^4 cells/well in 200 μL culture media (50% MEM/EBSS and Ham's F12, lx each sodium pyruvate, non-essential amino acids and Na bicarbonate containing 10% FBS). The following day, media is removed from the cells, fresh media added then incubated at 37° C. for 24 hours in the presence/absence of test compound at the desired concentration range.
At the end of the incubation, conditioned media are analyzed for evidence of beta-secretase activity by analysis of Abeta peptides 1-40 and 1-42 by specific sandwich ELISAs. […]

IC50 (human BACE1(1-460):Fc): 1.19 nM
IC50 (human BACE2 (1-460):Fc; huBACE2:Fc, TMEM27 FRET substrate, Mean±SEM 202, n=4): 479 nM
BACE2 IC50 / BACE1 IC50 ratio (selectivity for BACE1) (human BACE2 (1-460):Fc; selectivity for BACE1 over BACE2): about 400 fold
IC50 (BACE1; read-out: SH-SY5YAPP695Wt A-beta (1-40) ELISA IC50): 0.385 ± 0.163 nM
IC50 (BACE1; read-out: SH-SY5YAPP695Wt A-beta (1-42) ELISA IC50): 0.381 ± 0.266 nM
SMILES: CC(F)(F)[C@H]1OC[C@]2(c3cc(NC(=O)c4cnc(-n5cncn5)cn4)ccc3F)N=C(N)SC[C@H]12 [Example 1, N-[3-[(4aS,5S,7aS)-2-Amino-5-(1,1-difluoroethyl)-4,4a,5,7-tetrahydrofuro[3,4-d][1,3]thiazin-7a-yl]-4-fluoro-phenyl]-5-(1,2,4-triazol-1-yl)pyrazine-2-carboxamide]
